Experiment: Solubility / suspension in thrombin reconstituting solution
Details: aqueous calcium chloride reconstituting solution
Text: Blended betamethasone sodium phosphate and acetate solutions preferably include anti-caking agent(s) and low calcium chloride concentration(s).

C[C@H]1C[C@H]2[C@@H]3CCC4=CC(=O)C=C[C@]4(C)[C@@]3(F)[C@@H](O)C[C@]2(C)[C@@]1(O)C(=O)COP(=O)([O-])[O-].[Na+].[Na+] [betamethasone sodium phosphate]
solubility: reduced in the presence of aqueous calcium chloride
